Our source for the IC50 values is BindingDB's records for doi:10.1016/s0960-894x(00)00294-8 (Universität Göttingen, 2000).

pIC50: −log10 of the molar value.

This experiment in a line: Compound was evaluated for inhibitory effect against protein phosphatase I (PP-I).

In turn, `CCCCCCCCCCCCCCCC(=O)OC[C@@H](O)[C@H]1OC(=O)[C@]2(CCC(OC(C)C)O2)C1=O` (stereo partly drawn) [Hexadecanoic acid (R)-2-hydroxy-2-((5S,8R)-2-isopropoxy-6,9-dioxo-1,7-dioxa-spiro[4.4]non-8-yl)-ethyl ester] showed a pIC50 of 5.52. To `CCCCCCCCCCCCCCCC(=O)OC[C@@H](O)[C@H]1OC(=O)[C@]2(O)CCC(O)O[C@]12OC` (stereo partly drawn) [Hexadecanoic acid (R)-2-((4aS,7R,7aR)-2,4a-dihydroxy-7a-methoxy-5-oxo-hexahydro-furo[3,4-b]pyran-7-yl)-2-hydroxy-ethyl ester] belongs 4.96.
